# Patent US20190151290A1 (Hoffmann-La Roche Inc., priority 2015, published 2019)
# Assays:
# [1] = tested on: patients with type 2 diabetes mellitus and acute coronary syndrome; type: in vivo; conditions: aleglitazar 150 μg daily vs placebo, overall population
# [2] = tested on: patients who had a linear GFR decline (diabetic nephropathy patients); conditions: due to hemodynamic response
smiles,measurement,setting,value
"CO[C@@H](Cc1ccc(OCCc2nc(-c3ccccc3)oc2C)c2ccsc12)C(=O)O [aleglitazar, (S)-2-methoxy-3-{4-[2-(5-methyl-2-phenyl-oxazol-4-yl)-ethoxy]-benzo[b]thiophen-7-yl}-propionic acid]",hemoglobin A1C,[1],reduced
same,"incidence of cardiovascular death, myocardial infarction or stroke",[1],did not significantly decrease
same,serum HDL-C level,[1],improved
same,serum triglyceride level,[1],improved
same,initial drop of GFR,[2],reversible after stopping the drug
